According to ChEMBL document CHEMBL4813938, “Astragaloside IV Improves Tibial Defect in Rats and Promotes Proliferation and Osteogenic Differentiation of hBMSCs through MiR-124-3p.1/STAT3 Axis” (J Nat Prod, 2021):
Active and inactive are the calls of the source.

What was measured:
HBMSC [1] = assay: Induction of cell cycle arrest in human BMSCs overexpressing miR-124-3p.1 assessed as accumulation of cells at G2/M phase at 160 mg/ml under osteogenic conditions by PI staining based flow cytometric analysis; type: functional, tissue-based
HBMSC [2] = assay: Induction of cell cycle arrest in human BMSCs overexpressing miR-124-3p.1 assessed as accumulation of cells at S phase at 160 mg/ml under osteogenic conditions by PI staining based flow cytometric analysis; type: functional, tissue-based
HBMSC [3] = assay: Induction of cell cycle arrest in human BMSCs assessed as accumulation of cells at S phase under osteogenic conditions by PI staining based flow cytometric analysis; type: functional, tissue-based; conditions: dose 80-320 mg/ml
Rattus norvegicus [4] = assay: Induction of tibial bone defect regeneration in ip dosed Lewis rat assessed as increase in BMD of tibial bone administered for 10 consecutive days by microcomputed tomography method; type: functional, organism-based; conditions: dose 0.16-4 g/Kg, time 10.0 day
HBMSC [5] = assay: Induction of osteogenic differentiation in human BMSCs assessed as down regulation of miR-124-3p.1 mRNA expression level at 160 mg/ml under osteogenic condition by RT-qPCR analysis; type: functional, tissue-based
HBMSC [6] = assay: Induction of osteogenic differentiation in human BMSCs overexpressing miR-124-3p.1 assessed as increase in osteogenic medium-induced RUNX2 protein expression level at 160 mg/ml by Western blot analysis; type: functional, tissue-based
HBMSC [7] = assay: Induction of osteogenic differentiation in human BMSCs assessed as increase in osteogenic medium-induced Smad4 mRNA expression level by RT-qPCR analysis; type: functional, tissue-based; conditions: dose 80-320 mg/ml
HBMSC [8] = assay: Induction of osteogenic differentiation in human BMSCs overexpressing miR-124-3p.1 assessed as increase in osteogenic medium-induced RUNX2 mRNA expression level at 160 mg/ml by RT-qPCR analysis; type: functional, tissue-based
HBMSC [9] = assay: Induction of cell cycle arrest in human BMSCs overexpressing miR-124-3p.1 assessed as decrease in cells at G0/G1 phase at 160 mg/ml under osteogenic conditions by PI staining based flow cytometric analysis; type: functional
HBMSC [10] = assay: Induction of cell cycle arrest in human BMSCs assessed as accumulation of cells at G2/M phase under osteogenic conditions by PI staining based flow cytometric analysis; type: functional, tissue-based; conditions: dose 80-320 mg/ml
HBMSC [11] = assay: Induction of osteogenic differentiation in human BMSCs overexpressing miR-124-3p.1 assessed as increase in osteogenic medium-induced OCN protein expression level at 160 mg/ml by Western blot analysis; type: functional
HBMSC [12] = assay: Induction of osteogenic differentiation in human BMSCs overexpressing miR-124-3p.1 assessed as increase in osteogenic medium-induced matrix mineralization by measuring calcium deposition at 160 mg/ml by Alizarin Red S staining-based microscopic analysis; type: functional, tissue-based
Rattus norvegicus [13] = assay: Induction of tibial bone defect regeneration in ip dosed Lewis rat assessed as increase in Tb.N of tibial bone administered for 10 consecutive days by microcomputed tomography method; type: functional, organism-based; conditions: dose 0.16-4 g/Kg, time 10.0 day
Rattus norvegicus [14] = assay: Induction of tibial bone defect regeneration in ip dosed Lewis rat assessed as […] in STAT3 mRNA expression level administered for 10 consecutive days by RT-qPCR analysis; type: functional, organism-based; conditions: dose 0.16-4 g/Kg, time 10.0 day
HBMSC [15] = assay: Induction of osteogenic differentiation in human BMSCs assessed as increase in osteogenic medium-induced RUNX2 mRNA expression level by RT-qPCR analysis; type: functional, tissue-based
Rattus norvegicus [16] = assay: Induction of tibial bone defect regeneration in ip dosed Lewis rat assessed as increase in Tb.Th of tibial bone administered for 10 consecutive days by microcomputed tomography method; type: functional, organism-based; conditions: dose 0.16-4 g/Kg, time 10.0 day
HBMSC [17] = assay: Induction of osteogenic differentiation in human BMSCs assessed as increase in alkaline phosphatase activity incubated for 21 days under osteogenic conditions by ELISA; type: functional, tissue-based; conditions: dose 80-320 mg/ml, time 21.0 day
HBMSC [18] = assay: Induction of osteogenic differentiation in human BMSCs assessed as increase in osteogenic medium-induced Smad4 protein expression level by Western blot analysis; type: functional, tissue-based; conditions: dose 80-320 mg/ml
HBMSC [19] = assay: Induction of osteogenic differentiation in human BMSCs overexpressing miR-124-3p.1 assessed as increase in cell viability at 160 mg/ml incubated for 72 hrs under osteogenic conditions by MTT assay; type: functional, tissue-based
HBMSC [20] = assay: Induction of osteogenic differentiation in human BMSCs assessed as increase in osteogenic medium-induced OCN protein expression level by Western blot analysis; type: functional, tissue-based; conditions: dose 80-320 mg/ml
Rattus norvegicus [21] = assay: Induction of tibial bone defect regeneration in ip dosed Lewis rat assessed as alleviation of bone injury administered for 10 consecutive days by HE staining based assay; type: functional, organism-based; conditions: dose 0.16-4 g/Kg, time 10.0 day
HBMSC [22] = assay: Induction of osteogenic differentiation in human BMSCs assessed as increase in cell viability incubated for 72 hrs under osteogenic conditions by MTT assay; type: functional, tissue-based; conditions: dose 80-320 mg/ml
HBMSC [23] = assay: Induction of osteogenic differentiation in human BMSCs overexpressing miR-124-3p.1 assessed as increase in alkaline phosphatase activity at 160 mg/ml incubated for 21 days under osteogenic conditions by ELISA; type: functional, tissue-based; conditions: time 21.0 day
HBMSC [24] = assay: Induction of osteogenic differentiation in human BMSCs assessed as increase in osteogenic medium-induced OCN mRNA expression level by RT-qPCR analysis; type: functional, tissue-based; conditions: dose 80-320 mg/ml
HBMSC [25] = assay: Induction of osteogenic differentiation in human BMSCs overexpressing miR-124-3p.1 assessed as increase in osteogenic medium-induced Smad4 mRNA expression level at 160 mg/ml by RT-qPCR analysis; type: functional, tissue-based
HBMSC [26] = assay: Induction of osteogenic differentiation in human BMSCs assessed as increase in osteogenic medium-induced RUNX2 protein expression level by Western blot analysis; type: functional, tissue-based; conditions: dose 80-320 mg/ml
Rattus norvegicus [27] = assay: Induction of tibial bone defect regeneration in ip dosed Lewis rat assessed as increase in Conn.D of tibial bone administered for 10 consecutive days by microcomputed tomography method; type: functional, organism-based; conditions: dose 0.16-4 g/Kg, time 10.0 day
HBMSC [28] = assay: Induction of osteogenic differentiation in human BMSCs overexpressing miR-124-3p.1 assessed as increase in osteogenic medium-induced Smad4 protein expression level at 160 mg/ml by Western blot analysis; type: functional, tissue-based
HBMSC [29] = assay: Induction of osteogenic differentiation in human BMSCs overexpressing miR-124-3p.1 assessed as increase in osteogenic medium-induced OCN mRNA expression level at 160 mg/ml by RT-qPCR analysis; type: functional, tissue-based
Rattus norvegicus [30] = assay: Induction of tibial bone defect regeneration in ip dosed Lewis rat assessed as […] in STAT3 protein expression level administered for 10 consecutive days by Western blotting analysis; type: functional, organism-based; conditions: dose 0.16-4 g/Kg, time 10.0 day
Rattus norvegicus [31] = assay: Induction of tibial bone defect regeneration in ip dosed Lewis rat assessed as decrease in Tb.Sp of tibial bone administered for 10 consecutive days by microcomputed tomography method; type: functional, organism-based; conditions: dose 0.16-4 g/Kg, time 10.0 day
HBMSC [32] = assay: Induction of osteogenic differentiation in human BMSCs assessed as increase in osteogenic medium-induced matrix mineralization by measuring calcium deposition by Alizarin Red S staining-based microscopic analysis; type: functional, tissue-based; conditions: dose 80-320 mg/ml
HBMSC [33] = assay: Induction of cell cycle arrest in human BMSCs assessed as decrease in cells at G0/G1 phase under osteogenic conditions by PI staining based flow cytometric analysis; type: functional; conditions: dose 80-320 mg/ml
Rattus norvegicus [34] = assay: Induction of tibial bone defect regeneration in ip dosed Lewis rat assessed as increase in BV/TV of tibial bone administered for 10 consecutive days by microcomputed tomography method; type: functional, organism-based; conditions: dose 0.16-4 g/Kg, time 10.0 day
Rattus norvegicus [35] = assay: Induction of tibial bone defect regeneration in ip dosed Lewis rat assessed as reduction in […] mRNA expression level administered for 10 consecutive days by RT-qPCR analysis; type: functional, organism-based; conditions: dose 0.16-4 g/Kg, time 10.0 day

Measured: Activity

CC(C)(O)[C@@H]1CC[C@](C)([C@H]2[C@@H](O)C[C@@]3(C)[C@@H]4C[C@H](O[C@@H]5O[C@H](CO)[C@@H](O)[C@H](O)[C@H]5O)[C@H]5C(C)(C)[C@@H](O[C@@H]6OC[C@@H](O)[C@H](O)[C@H]6O)CC[C@@]56C[C@@]46CC[C@]23C)O1
inactive: HBMSC [1] | HBMSC [2] | HBMSC [6] | HBMSC [8] | HBMSC [9] | HBMSC [11] | HBMSC [12] | HBMSC [19] | HBMSC [23] | HBMSC [25] | HBMSC [28] | HBMSC [29]
active: HBMSC [3] Dose-Dependent Effect | Rattus norvegicus [4] Dose-Dependent Effect | HBMSC [5] | HBMSC [7] Dose-Dependent Effect | HBMSC [10] Dose-Dependent Effect | Rattus norvegicus [13] Dose-Dependent Effect | Rattus norvegicus [14] Dose-Dependent Effect | HBMSC [15] Dose-Dependent Effect | Rattus norvegicus [16] Dose-Dependent Effect | HBMSC [17] Dose-Dependent Effect | HBMSC [18] Dose-Dependent Effect | HBMSC [20] Dose-Dependent Effect | Rattus norvegicus [21] Dose-Dependent Effect | HBMSC [22] Dose-Dependent Effect | HBMSC [24] Dose-Dependent Effect | HBMSC [26] Dose-Dependent Effect | Rattus norvegicus [27] Dose-Dependent Effect | Rattus norvegicus [30] Dose-Dependent Effect | Rattus norvegicus [31] Dose-Dependent Effect | HBMSC [32] Dose-Dependent Effect | HBMSC [33] Dose-Dependent Effect | Rattus norvegicus [34] Dose-Dependent Effect | Rattus norvegicus [35] Dose-Dependent Effect
